In ChEMBL document CHEMBL1201862, “PubChem BioAssay data set” (2004):
Active and inactive are the calls of the source.

Experiments:
[1] = molecular target: T1, Heat shock factor protein 1 (Mus musculus, UniProt P38532); assay: decrease of HSF1-responsive luciferase luminescence – cell-based, NIH3T3, dose retest, confirmation (AID 2382); type: functional;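 further: NIH3T3 fibroblasts with HSF1-driven luciferase reporter stressed by proteasome inhibitor MG132; luminescence from HSF1-driven luciferase expression after 8 hours of MG132 stress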
T1 sequence (P38532 whole entry): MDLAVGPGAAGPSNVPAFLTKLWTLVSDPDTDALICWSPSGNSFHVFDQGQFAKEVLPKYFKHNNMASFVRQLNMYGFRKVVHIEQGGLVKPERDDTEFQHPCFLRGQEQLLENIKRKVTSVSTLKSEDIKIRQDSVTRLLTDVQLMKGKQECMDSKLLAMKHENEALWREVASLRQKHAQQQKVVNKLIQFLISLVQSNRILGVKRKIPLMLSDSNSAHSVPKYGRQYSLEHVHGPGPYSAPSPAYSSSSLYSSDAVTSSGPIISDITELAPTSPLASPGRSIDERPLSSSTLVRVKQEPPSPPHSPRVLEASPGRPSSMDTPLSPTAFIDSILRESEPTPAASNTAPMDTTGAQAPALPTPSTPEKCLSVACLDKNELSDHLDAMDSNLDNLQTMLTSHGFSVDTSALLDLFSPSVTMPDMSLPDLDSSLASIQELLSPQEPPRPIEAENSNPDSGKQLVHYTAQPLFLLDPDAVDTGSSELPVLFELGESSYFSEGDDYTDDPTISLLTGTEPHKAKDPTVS

Mucolipin-3 = molecular target: T2, Mucolipin-3 (Homo sapiens, UniProt Q8TDD5); assay: Dose response cell-based high-throughput screening assay for agonists of the transient receptor potential channel ML3 (TRPML3). [Related pubchem assays: 1526, 1424, 1448 ]; type: functional
T2 sequence (Q8TDD5 whole entry): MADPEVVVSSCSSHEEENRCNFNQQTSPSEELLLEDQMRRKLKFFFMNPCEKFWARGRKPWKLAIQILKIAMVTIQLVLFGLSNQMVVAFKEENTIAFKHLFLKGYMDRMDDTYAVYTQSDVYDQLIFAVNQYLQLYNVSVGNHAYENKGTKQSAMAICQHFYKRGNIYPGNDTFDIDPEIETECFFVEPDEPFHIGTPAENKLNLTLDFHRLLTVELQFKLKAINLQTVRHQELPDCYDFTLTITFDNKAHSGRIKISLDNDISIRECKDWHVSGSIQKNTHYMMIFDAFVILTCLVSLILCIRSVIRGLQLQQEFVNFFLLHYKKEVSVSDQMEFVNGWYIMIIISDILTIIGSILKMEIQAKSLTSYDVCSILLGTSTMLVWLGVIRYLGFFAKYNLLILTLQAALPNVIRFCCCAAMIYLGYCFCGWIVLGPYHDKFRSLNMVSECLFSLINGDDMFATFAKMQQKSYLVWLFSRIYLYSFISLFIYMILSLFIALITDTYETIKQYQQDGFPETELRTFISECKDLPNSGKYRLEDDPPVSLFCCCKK

Ion channel NompC = Ion channel NompC (Danio rerio, UniProt Q7T1G6); assay: Fluorescence counterscreen assay for TRPML3 agonists: dose response cell-based high-throughput screening assay to identify agonists of the transient receptor potential channel N1 (TRPN1). [Related pubchem assays: 1526, 1424, 1448 ]; type: functional
Sequence of Ion channel NompC (Q7T1G6 whole entry): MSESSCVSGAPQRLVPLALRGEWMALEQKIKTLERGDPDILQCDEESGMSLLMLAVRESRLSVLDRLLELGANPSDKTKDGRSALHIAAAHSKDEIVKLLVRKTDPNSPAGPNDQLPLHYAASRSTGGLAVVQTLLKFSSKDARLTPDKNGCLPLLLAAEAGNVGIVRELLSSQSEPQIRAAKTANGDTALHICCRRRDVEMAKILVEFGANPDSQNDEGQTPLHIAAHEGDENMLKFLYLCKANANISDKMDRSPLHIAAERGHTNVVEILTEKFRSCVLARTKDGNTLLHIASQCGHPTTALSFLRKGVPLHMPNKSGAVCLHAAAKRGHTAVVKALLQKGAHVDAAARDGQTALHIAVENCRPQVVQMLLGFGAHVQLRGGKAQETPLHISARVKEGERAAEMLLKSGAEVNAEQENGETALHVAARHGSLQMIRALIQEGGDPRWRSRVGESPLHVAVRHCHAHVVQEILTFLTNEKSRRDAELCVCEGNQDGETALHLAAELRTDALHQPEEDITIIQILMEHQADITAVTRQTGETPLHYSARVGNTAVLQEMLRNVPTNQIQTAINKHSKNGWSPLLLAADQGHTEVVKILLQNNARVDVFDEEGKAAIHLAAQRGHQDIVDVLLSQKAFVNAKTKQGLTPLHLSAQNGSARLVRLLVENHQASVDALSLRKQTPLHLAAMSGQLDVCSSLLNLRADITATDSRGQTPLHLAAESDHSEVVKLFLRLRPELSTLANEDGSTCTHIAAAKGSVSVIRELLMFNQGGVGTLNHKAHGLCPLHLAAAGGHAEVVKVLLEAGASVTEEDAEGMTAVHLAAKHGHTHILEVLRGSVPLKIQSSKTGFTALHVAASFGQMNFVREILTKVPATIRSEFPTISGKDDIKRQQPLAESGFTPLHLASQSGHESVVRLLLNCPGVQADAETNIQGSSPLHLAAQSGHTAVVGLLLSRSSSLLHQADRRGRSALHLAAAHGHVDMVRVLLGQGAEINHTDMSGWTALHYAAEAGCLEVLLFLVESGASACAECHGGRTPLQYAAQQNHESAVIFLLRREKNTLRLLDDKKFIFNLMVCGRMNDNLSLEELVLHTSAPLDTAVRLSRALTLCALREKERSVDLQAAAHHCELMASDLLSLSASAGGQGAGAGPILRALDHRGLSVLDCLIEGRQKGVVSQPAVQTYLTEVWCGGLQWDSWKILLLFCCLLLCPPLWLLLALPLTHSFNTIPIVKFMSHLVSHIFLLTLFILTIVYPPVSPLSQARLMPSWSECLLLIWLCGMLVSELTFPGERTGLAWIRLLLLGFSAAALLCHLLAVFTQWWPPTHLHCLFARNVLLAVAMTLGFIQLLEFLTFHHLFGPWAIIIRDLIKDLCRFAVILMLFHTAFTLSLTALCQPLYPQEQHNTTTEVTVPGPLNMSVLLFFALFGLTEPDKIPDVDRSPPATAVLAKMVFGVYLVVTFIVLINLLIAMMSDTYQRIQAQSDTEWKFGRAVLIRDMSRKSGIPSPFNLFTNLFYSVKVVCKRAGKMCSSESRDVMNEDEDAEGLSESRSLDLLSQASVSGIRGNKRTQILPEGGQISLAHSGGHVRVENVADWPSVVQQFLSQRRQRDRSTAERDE

[2] = Luminescence Cell-Based Dose Confirmation HTS to Identify Activators of 5'UTR Stem-Loop Driven Alpha-Synuclein mRNA Translation in H4 Neuroglioblastoma Cells. [Related pubchem assays: 1829 (Project Summary), 1814 (Primary HTS)]; type: functional
[3] = decrease of insulin promoter-GFP reporter – imaging, high-content screening, mouse beta cells (AID 1628); type: functional; conditions: MIN6
[4] = Luminescence Cell-Based Dose Response HTS to Identify Activators of Luciferase Translation or Activity in H4 […] Cells. [Related pubchem assays: 1829 (Project Summary), 1814 (Primary HTS)]; type: functional
[5] = MIN6 cell viability loss – mouse insulinoma, cytotoxicity control, dose response (AID 2122); type: functional;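 further: confirmatory high-throughput counterscreen run to flag cytotoxic compounds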
H4 = assay: Luminescence Cell-Based Dose Response HTS to Identify Activators of 5'UTR Stem-Loop Driven Prion Protein mRNA Translation in H4 Neuroglioblastoma Cells. [Related pubchem assays: 1829 (Project Summary), 1814 (Primary HTS)]; type: functional; conditions: Homo sapiens
[6] = molecular target: Protein-tyrosine kinase 2-beta (Homo sapiens, UniProt Q14289);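 further: potency of inhibitors of PYK2 kinase phosphorylation of poly-GT substrate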
Sequence of Protein-tyrosine kinase 2-beta (Q14289 whole entry): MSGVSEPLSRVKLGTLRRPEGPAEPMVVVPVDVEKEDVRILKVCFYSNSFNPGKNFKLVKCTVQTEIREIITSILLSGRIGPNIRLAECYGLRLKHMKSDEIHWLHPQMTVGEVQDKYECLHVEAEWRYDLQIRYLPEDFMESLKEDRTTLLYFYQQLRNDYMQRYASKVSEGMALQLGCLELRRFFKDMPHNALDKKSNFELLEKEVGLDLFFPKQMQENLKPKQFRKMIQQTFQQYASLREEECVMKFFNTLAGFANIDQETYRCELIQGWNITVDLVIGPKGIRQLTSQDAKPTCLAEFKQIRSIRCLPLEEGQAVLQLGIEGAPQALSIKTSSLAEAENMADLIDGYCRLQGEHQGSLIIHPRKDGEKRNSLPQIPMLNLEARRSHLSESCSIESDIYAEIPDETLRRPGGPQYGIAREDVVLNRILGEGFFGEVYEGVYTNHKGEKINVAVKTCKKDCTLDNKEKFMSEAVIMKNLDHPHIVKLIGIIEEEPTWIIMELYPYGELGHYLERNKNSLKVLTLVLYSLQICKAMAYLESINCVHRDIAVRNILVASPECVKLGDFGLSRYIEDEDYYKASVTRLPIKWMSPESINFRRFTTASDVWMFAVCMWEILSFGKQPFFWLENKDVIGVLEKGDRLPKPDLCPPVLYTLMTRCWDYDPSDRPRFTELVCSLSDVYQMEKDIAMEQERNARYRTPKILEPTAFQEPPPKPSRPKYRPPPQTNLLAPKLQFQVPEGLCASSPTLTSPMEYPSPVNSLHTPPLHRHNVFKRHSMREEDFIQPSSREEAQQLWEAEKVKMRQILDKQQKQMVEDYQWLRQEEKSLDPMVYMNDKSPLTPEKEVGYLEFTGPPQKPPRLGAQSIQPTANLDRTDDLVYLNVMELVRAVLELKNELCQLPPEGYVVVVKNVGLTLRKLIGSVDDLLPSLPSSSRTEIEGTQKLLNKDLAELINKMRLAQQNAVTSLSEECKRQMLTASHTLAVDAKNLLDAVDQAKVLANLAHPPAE

[7] = molecular target: Glyceraldehyde-3-phosphate dehydrogenase (Homo sapiens, UniProt P04406)
Sequence of Glyceraldehyde-3-phosphate dehydrogenase (P04406 whole entry): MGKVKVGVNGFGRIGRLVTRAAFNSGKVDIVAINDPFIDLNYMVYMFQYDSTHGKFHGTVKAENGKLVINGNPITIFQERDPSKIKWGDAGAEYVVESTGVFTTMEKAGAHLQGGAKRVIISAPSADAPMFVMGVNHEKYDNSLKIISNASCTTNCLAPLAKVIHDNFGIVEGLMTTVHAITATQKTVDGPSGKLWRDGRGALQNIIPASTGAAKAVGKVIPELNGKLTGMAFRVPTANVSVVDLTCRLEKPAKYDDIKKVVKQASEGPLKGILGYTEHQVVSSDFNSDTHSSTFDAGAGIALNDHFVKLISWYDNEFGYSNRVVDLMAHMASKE

Bcl-2-related protein A1 [8] = molecular target: T3, Bcl-2-related protein A1 (Mus musculus, UniProt Q07440); assay: small-molecule antagonists of Bfl-1/BH3 interaction – biochemical, TR-FRET, mouse Bfl-1, confirmation (AID 621);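 further: TR-FRET binding of GST-Bfl-1 to FITC-labelled Bid peptide via terbium antibody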
T3 sequence (Q07440 whole entry): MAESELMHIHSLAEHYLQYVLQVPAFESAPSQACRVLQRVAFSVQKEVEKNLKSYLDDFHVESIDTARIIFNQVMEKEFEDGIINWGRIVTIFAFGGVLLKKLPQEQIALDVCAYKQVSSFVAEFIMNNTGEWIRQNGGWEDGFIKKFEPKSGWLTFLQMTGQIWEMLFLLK

Bcl-2-related protein A1 [9] = molecular target: T3, Bcl-2-related protein A1; assay: Bfl-1 binding inhibitors, SAR follow-up, biochemical, fluorescence polarization (AID 1070)
NADPH oxidase 1 = NADPH oxidase 1 (Homo sapiens, UniProt Q9Y5S8); type: functional, cell-based;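 further: Cell-based assay with luminescence read-out, IC50 derived from inhibitor dose-response curves; intracellular ROS from endogenous NOX1 in intact HT29 colon cancer cells; potency of inhibitors that lower the ROS luminescence signal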
Sequence of NADPH oxidase 1 (Q9Y5S8 whole entry): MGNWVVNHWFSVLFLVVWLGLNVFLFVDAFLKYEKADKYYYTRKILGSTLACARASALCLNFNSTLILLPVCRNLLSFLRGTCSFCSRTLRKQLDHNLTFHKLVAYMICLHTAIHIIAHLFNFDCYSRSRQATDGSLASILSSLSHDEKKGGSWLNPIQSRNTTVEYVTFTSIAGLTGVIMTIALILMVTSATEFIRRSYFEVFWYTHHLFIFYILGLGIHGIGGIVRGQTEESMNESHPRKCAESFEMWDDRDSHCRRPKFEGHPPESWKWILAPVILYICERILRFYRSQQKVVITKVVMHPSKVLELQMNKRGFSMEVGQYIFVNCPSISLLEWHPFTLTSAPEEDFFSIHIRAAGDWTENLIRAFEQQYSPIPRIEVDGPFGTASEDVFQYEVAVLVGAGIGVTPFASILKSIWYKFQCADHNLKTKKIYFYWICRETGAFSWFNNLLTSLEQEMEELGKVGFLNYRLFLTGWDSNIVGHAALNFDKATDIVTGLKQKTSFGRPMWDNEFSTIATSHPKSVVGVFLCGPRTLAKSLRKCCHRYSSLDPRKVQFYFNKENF

[10] = molecular target: Sphingosine 1-phosphate receptor 2 (Homo sapiens, UniProt O95136); assay: Dose Response Cell Based Assay for Agonists of the S1P2 Receptor of Purchased Analogues. [Related pubchem assays: 729, 843, 854, 736 ]; type: functional
Sequence of Sphingosine 1-phosphate receptor 2 (O95136 whole entry): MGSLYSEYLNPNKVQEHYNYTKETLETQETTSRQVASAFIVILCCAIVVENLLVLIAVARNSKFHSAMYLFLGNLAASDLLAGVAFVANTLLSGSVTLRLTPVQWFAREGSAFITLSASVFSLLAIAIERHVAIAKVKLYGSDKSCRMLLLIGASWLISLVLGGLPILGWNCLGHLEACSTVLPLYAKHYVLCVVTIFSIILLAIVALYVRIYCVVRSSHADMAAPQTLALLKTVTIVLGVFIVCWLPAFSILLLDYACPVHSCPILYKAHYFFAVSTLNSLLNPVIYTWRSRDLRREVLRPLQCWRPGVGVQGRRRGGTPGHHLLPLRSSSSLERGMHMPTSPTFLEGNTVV

[11] = molecular target: T4, Induced myeloid leukemia cell differentiation protein Mcl-1 (Homo sapiens, UniProt Q07820); assay: blockers of MCL1 binding to BIM peptide – biochemical, fluorescence polarization, BIM-BH3 peptide, 1536-well, dose response (AID 2217)
T4 sequence (Q07820 whole entry): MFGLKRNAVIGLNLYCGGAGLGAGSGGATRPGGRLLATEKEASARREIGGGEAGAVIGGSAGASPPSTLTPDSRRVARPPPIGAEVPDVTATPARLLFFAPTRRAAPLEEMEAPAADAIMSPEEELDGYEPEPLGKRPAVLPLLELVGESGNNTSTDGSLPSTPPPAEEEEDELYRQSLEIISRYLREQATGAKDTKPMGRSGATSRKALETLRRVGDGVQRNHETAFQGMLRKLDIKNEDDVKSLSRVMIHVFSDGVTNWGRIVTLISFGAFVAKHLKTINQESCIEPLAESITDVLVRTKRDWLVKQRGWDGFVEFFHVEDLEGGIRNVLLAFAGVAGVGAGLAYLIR

Bcl-2-like protein 1 = Bcl-2-like protein 1 (Homo sapiens, UniProt Q07817); assay: blockers of BCLXL peptide binding – biochemical, fluorescence polarization, 1536-well, selectivity assay for MCL1 inhibitor project, dose response (AID 2218)
Sequence of Bcl-2-like protein 1 (Q07817 whole entry): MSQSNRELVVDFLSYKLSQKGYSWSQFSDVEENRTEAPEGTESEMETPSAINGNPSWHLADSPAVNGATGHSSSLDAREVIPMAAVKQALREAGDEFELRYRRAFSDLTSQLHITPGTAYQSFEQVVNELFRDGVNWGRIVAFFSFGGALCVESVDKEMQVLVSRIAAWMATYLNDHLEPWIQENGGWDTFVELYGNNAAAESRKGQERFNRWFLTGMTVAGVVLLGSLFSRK

[12] = molecular target: T4, Induced myeloid leukemia cell differentiation protein Mcl-1; type: functional
[13] = mitochondrial function rescue without frataxin homolog – Friedreich's ataxia, plus single-dose screen, dose response (AID 1465); type: functional;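 further: yeast depleted of Yfh1p frataxin homolog grown on glycerol needing respiration; WST-1 tetrazolium dye reduction as measure of cellular dehydrogenase metabolic activity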
[14] = molecular target: Mothers against decapentaplegic homolog 3 (Homo sapiens, UniProt P84022); assay: inhibitors of SMAD-driven TGF-beta signaling – dose response (AID 715); type: functional
[15] = molecular target: Lysine-specific demethylase 4C (Homo sapiens, UniProt Q9H3R0); assay: inhibition of JMJD2C H3K9me3 demethylation – biochemical, DELFIA europium, cherry-picked samples, dose response (AID 488835); type: functional
[16] = molecular target: T5, Replicative DNA helicase DnaB (Mycobacterium tuberculosis, UniProt P9WMR3); assay: DnaB intein splicing inhibitors, dose response, biochemical, cell-free fluorescence (AID 449749); type: functional
T5 sequence (P9WMR3 whole entry): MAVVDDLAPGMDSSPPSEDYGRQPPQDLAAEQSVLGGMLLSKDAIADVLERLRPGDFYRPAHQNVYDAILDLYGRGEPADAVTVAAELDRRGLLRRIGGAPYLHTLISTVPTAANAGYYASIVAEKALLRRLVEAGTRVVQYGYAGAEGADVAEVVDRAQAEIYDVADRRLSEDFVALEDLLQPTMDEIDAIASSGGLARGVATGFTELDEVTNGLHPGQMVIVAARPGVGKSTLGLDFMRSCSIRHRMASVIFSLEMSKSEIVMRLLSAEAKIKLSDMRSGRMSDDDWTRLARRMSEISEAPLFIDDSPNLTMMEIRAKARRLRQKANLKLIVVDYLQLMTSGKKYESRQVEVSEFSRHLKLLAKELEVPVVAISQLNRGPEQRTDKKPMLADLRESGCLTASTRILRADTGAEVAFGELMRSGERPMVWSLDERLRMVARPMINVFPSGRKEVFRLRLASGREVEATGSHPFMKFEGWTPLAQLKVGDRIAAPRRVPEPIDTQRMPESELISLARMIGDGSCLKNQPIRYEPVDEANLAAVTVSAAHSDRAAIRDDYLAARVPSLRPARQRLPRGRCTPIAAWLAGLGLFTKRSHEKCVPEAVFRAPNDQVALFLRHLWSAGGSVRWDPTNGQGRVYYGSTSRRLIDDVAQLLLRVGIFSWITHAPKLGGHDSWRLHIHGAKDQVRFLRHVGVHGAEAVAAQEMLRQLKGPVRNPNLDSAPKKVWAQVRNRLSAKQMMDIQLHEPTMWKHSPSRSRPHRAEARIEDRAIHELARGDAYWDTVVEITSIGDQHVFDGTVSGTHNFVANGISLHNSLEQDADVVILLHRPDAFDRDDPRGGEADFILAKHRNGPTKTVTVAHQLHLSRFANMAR

Protein RecA = molecular target: T6, Protein RecA (Mycobacterium tuberculosis, UniProt P9WHJ3); assay: Fluorescence Cell-Free Homogeneous Dose Retest to Identify Inhibitors of RecA-Intein Splicing Activity. [Related pubchem assays (depositor defined):AID2097, AID2223, AID489010, AID492950]; type: functional
T6 sequence (P9WHJ3 whole entry): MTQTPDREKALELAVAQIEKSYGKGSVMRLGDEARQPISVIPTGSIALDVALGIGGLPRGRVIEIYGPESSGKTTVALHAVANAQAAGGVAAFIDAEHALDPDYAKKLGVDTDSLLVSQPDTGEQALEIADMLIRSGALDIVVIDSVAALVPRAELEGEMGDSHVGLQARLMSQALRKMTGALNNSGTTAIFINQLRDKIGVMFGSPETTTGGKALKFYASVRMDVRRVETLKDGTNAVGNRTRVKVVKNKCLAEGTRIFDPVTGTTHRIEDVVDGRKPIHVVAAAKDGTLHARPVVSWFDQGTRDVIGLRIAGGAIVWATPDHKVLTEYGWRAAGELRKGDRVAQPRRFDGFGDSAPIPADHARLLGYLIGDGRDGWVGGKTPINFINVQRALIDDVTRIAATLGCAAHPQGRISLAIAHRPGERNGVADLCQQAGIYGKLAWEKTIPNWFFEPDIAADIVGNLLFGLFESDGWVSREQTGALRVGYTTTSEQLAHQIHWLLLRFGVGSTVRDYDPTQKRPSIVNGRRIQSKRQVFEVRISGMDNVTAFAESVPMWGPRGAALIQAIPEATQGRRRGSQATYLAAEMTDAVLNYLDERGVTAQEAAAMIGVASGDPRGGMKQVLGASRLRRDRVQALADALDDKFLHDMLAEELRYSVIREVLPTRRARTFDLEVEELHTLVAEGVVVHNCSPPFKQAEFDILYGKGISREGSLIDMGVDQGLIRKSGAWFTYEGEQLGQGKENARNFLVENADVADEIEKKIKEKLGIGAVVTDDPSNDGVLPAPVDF

[17] = molecular target: Tyrosyl-DNA phosphodiesterase 2 (Homo sapiens, UniProt O95551); assay: potency against TDP2 phosphodiesterase activity – biochemical, epi absorbance, IC50, dose response (AID 743297)
Sequence of Tyrosyl-DNA phosphodiesterase 2 (O95551 whole entry): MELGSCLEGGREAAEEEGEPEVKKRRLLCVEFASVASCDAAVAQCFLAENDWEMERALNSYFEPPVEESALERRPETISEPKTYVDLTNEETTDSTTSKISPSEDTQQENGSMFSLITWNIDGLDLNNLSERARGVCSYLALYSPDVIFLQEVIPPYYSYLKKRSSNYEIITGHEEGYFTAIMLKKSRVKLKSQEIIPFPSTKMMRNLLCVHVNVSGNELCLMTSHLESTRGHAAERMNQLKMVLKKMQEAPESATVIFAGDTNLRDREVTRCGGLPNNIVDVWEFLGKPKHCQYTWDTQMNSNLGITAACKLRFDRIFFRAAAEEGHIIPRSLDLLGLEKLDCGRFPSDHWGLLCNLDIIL

Cc1ccc(NC(=O)c2cnc(N3CCN(c4ccccn4)CC3)c3ccccc23)c(Br)c1
EC50 [1]: 8.67 µM (active)
EC50 (Mucolipin-3): 4.96 µM (active)
EC50 (Ion channel NompC): > 29.9 µM (not active)

Cc1ccc2[nH]c3c(NCc4ccco4)ncnc3c2c1
EC50 [2]: 29.1 µM (active)
IC50 [3]: 2.53 µM (active)
EC50 [4]: 20.1 µM (active)
IC50 [5]: 2.95 µM (active)
EC50 (H4): 17.8 µM (active)
IC50 [6]: > 69.5 µM (not active)

O=C1C(Cl)=C(Cl)C(=O)N1c1cc(Cl)cc(Cl)c1
IC50 [7]: > 100 µM (not active)
IC50 (Bcl-2-related protein A1 [8]): 2.07 µM (active)
IC50 (Bcl-2-related protein A1 [9]): 1.42 µM (active)

O=C(O)c1sc2ccccc2c1Cl
IC50 (NADPH oxidase 1): > 17 µM (not active)

Cc1cc(C(=O)CN2C(=O)NC(Cc3ccccc3)C2=O)c(C)n1Cc1cccs1 (stereo not drawn)
EC50 [10]: > 30 µM (not active)

Nc1nc(S)c2ncn(C3OC(CO)C(O)C3O)c2n1 (stereo not drawn)
IC50 [11]: 4.94 µM (active)
IC50 (Bcl-2-like protein 1): 34 µM (not active)
IC50 [12]: 7.34 µM (active)

CCOc1ccc(N=Nc2c(=O)[nH]n3c(C)cc(C)nc23)cc1
EC50 [13]: > 100 µM (active)

CC1(C)CC(=O)C(C2(O)C(=O)NC(=O)NC2=O)=C(O)C1
IC50 [14]: 2.3 µM (active)
AC50 [15]: 5.57 µM (active)
AC50 [16]: 1.23 µM (active)
EC50 (Protein RecA): 2.23 µM (active)
IC50 [17]: 14.5 µM (inactive)
